Experimental data as given in ChEMBL document CHEMBL3272069, “Inhibition of acetylcholinesterase by thiamine. A structure-function study” (J Med Chem, 1977).
The source made the active and inactive calls. The rule behind the calls is not given here.

Experiments:
Acetylcholinesterase [1] = molecular target: T1, Acetylcholinesterase (Electrophorus electricus, UniProt O42275); assay: (§1) Competitive inhibition of electric eel AChE using acetylthiocholine chloride as substrate at pH 8.25 by Michaelis-Menten plot analysis
T1 sequence (O42275 whole entry): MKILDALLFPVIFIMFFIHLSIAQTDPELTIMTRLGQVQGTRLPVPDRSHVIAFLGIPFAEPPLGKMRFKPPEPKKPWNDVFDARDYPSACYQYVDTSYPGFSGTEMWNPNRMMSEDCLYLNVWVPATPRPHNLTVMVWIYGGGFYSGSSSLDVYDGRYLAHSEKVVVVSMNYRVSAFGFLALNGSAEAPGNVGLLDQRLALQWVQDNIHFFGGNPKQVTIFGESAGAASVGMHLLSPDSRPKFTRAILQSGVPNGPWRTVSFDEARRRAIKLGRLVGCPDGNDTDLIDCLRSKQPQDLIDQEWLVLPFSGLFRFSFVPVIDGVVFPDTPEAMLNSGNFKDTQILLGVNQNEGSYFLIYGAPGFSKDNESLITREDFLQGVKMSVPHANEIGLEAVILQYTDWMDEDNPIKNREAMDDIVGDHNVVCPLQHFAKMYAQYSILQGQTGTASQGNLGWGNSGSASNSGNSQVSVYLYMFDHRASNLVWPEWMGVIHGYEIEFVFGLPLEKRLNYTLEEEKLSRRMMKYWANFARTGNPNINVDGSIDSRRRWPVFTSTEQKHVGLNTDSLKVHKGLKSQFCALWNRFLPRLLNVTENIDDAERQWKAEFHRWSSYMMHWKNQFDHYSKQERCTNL

Acetylcholinesterase [2] = molecular target: T1, Acetylcholinesterase; assay: (§2) Noncompetitive inhibition of electric eel AChE using acetylthiocholine chloride as substrate at pH 7 by Michaelis-Menten plot analysis
Acetylcholinesterase [3] = molecular target: T1, Acetylcholinesterase; assay: (§3) Noncompetitive inhibition of electric eel AChE using acetylthiocholine chloride as substrate at pH 8.25 by Michaelis-Menten plot analysis
Acetylcholinesterase [4] = molecular target: T1, Acetylcholinesterase; assay: (§4) Competitive inhibition of electric eel AChE using acetylthiocholine chloride as substrate at pH 7 by Michaelis-Menten plot analysis
[5] = Dissociation constant, pKa of the compound by potentiometric titration analysis; assay type: physicochemical
[6] = molecular target: Acetylcholinesterase (Electrophorus electricus) (UniProt O42275); assay: as §1
Acetylcholinesterase (Electrophorus electricus), sequence (O42275 24-633 limits assumed): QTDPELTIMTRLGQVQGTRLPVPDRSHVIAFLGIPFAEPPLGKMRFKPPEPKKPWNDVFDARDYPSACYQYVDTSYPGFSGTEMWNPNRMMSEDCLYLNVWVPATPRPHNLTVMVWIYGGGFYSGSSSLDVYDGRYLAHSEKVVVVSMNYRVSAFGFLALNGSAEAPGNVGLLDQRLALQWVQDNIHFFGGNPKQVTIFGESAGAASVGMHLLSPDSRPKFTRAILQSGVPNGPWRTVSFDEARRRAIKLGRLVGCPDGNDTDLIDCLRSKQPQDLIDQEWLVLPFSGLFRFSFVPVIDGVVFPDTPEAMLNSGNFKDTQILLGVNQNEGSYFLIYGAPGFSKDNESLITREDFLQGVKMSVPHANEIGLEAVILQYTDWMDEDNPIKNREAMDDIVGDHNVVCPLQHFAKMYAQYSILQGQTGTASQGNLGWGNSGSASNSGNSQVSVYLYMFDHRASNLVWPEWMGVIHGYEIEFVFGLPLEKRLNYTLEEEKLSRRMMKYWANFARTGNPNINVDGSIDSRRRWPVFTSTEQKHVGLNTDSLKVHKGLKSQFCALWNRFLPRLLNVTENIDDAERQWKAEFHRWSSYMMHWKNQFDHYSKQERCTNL

[7] = molecular target: Acetylcholinesterase (Electrophorus electricus) (UniProt O42275); assay: as §2
[8] = molecular target: Acetylcholinesterase (Electrophorus electricus) (UniProt O42275); assay: as §3
[9] = molecular target: Acetylcholinesterase (Electrophorus electricus) (UniProt O42275); assay: as §4

## CCc1scnc1C
Acetylcholinesterase [1]
  Ki: 562 µM
Acetylcholinesterase [2]
  Ki: 1950 µM
Acetylcholinesterase [3]
  Ki: 51100 µM
Acetylcholinesterase [4]
  Ki: 468 µM

## Cc1ncc(C[n+]2csc(CCO[P@](=O)(O)OP(=O)(O)O)c2C)c(N)n1
Acetylcholinesterase [1]
  Ki: 14200 µM
Acetylcholinesterase [2]
  Ki: 6740 µM
Acetylcholinesterase [3]
  Ki: 58400 µM
Acetylcholinesterase [4]
  Ki: 14600 µM

## Cc1ncc(CN2CSC3CCOC32C)c(N)n1 (stereo not drawn)
Acetylcholinesterase [1]
  Ki: 541 µM
Acetylcholinesterase [3]
  Ki: 237 µM

## Cc1ncc(C[n+]2csc(CCO)c2C)c(N)n1 [THIAMINE]
Acetylcholinesterase [1]
  Ki: 392 µM
Acetylcholinesterase [2]
  Ki: 565 µM
Acetylcholinesterase [3]
  Ki: 333 µM
Acetylcholinesterase [4]
  Ki: 432 µM

## Cc1c(CCO)sc[n+]1C
Acetylcholinesterase [1]
  Ki: 75.6 µM
Acetylcholinesterase [2]
  Ki: 1250 µM
Acetylcholinesterase [3]
  Ki: 18800 µM
Acetylcholinesterase [4]
  Ki: 148 µM

## Cc1ncc(CN2CSC(CCO)C2C)c(N)n1 (stereo not drawn)
Acetylcholinesterase [1]
  Ki: 496 µM
Acetylcholinesterase [2]
  Ki: 624 µM
[5]
  pKa: 7.6
Acetylcholinesterase [3]
  Ki: 839 µM
Acetylcholinesterase [4]
  Ki: 188 µM

## c1cscn1
[6]
  inhibition: inactive
[7]
  inhibition: inactive
[8]
  inhibition: inactive
[9]
  inhibition: inactive

## Cc1ncc(C[n+]2csc(CCOP(=O)(O)O)c2C)c(N)n1 [MONOPHOSPHOTHIAMINE]
Acetylcholinesterase [1]
  Ki: 11300 µM
Acetylcholinesterase [2]
  Ki: 9270 µM
Acetylcholinesterase [3]
  Ki: 5930 µM
Acetylcholinesterase [4]
  Ki: 3010 µM

## Cc1ncc(C[n+]2csc(CCOP(=O)(O)OP(=O)(O)OP(=O)(O)O)c2C)c(N)n1
Acetylcholinesterase [1]
  Ki: 10000 µM
Acetylcholinesterase [2]
  Ki: 881 µM
Acetylcholinesterase [3]
  Ki: 1000 µM
Acetylcholinesterase [4]
  Ki: 5200 µM

## Cc1csc[n+]1C
Acetylcholinesterase [1]
  Ki: 54.8 µM
Acetylcholinesterase [2]
  Ki: 9.8 µM
Acetylcholinesterase [3]
  Ki: 445 µM
Acetylcholinesterase [4]
  Ki: 67.9 µM

## CCc1sc[n+](C)c1C
Acetylcholinesterase [1]
  Ki: 8.34 µM
Acetylcholinesterase [2]
  Ki: 5.43 µM
Acetylcholinesterase [3]
  Ki: 0.935 µM
Acetylcholinesterase [4]
  Ki: 11.1 µM

## Cc1ncsc1CCO
Acetylcholinesterase [1]
  Ki: 8610 µM
Acetylcholinesterase [2]
  Ki: 1370 µM
Acetylcholinesterase [3]
  Ki: 706 µM
Acetylcholinesterase [4]
  Ki: 7990 µM

## Cc1cscn1
Acetylcholinesterase [1]
  Ki: 6070 µM
Acetylcholinesterase [2]
  Ki: 3250 µM
Acetylcholinesterase [3]
  Ki: 109000 µM
Acetylcholinesterase [4]
  Ki: 5420 µM

## Cc1ncc(CS(=O)(=O)O)c(N)n1
[6]
  inhibition: inactive
[7]
  inhibition: inactive
[8]
  inhibition: inactive
[9]
  inhibition: inactive

## C[n+]1ccsc1
Acetylcholinesterase [1]
  Ki: 286 µM
Acetylcholinesterase [2]
  Ki: 939 µM
Acetylcholinesterase [3]
  Ki: 2.95 µM
Acetylcholinesterase [4]
  Ki: 317 µM

## Cc1ncc(C)c(N)n1
Acetylcholinesterase [1]
  Ki: 163 µM
Acetylcholinesterase [2]
  Ki: 260 µM
[5]
  pKa: 6.5
Acetylcholinesterase [3]
  Ki: 551 µM
Acetylcholinesterase [4]
  Ki: 111 µM

## c1cncnc1
[6]
  inhibition: inactive
[7]
  inhibition: inactive
[8]
  inhibition: inactive
[9]
  inhibition: inactive

## Nc1ccncn1
Acetylcholinesterase [1]
  Ki: 9720 µM
Acetylcholinesterase [2]
  Ki: 8850 µM
[5]
  pKa: 5.71
Acetylcholinesterase [3]
  Ki: 4240 µM
Acetylcholinesterase [4]
  Ki: 5020 µM
